Reference: patent US20230158025A1 (UNIVERSITY OF UTAH RESEARCH FOUNDATION, priority 2020, published 2023)
Where two headings read alike, the source gives them in different places.

Key:
[1] = target: recombinant human GALK1 (Homo sapiens, UniProt P51570); assay: hGALK1 biochemical activity assay (Kinase-Glo Plus, ATP depletion)
Procedure, shortened: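 Turnover is measured as ATP depletion by Kinase-Glo Plus luminescence after a 1 h room-temperature reaction. Compounds span 11 concentrations, 57.4 μM–0.97 nM, in final 20 mM HEPES pH 8.0 with 5 mM MgCl2. The substrate solution held 35 μM ATP; the added solution held 5 nM human or mouse GALK1 and 100 μM galactose.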

[2] = rat microsomal stability (RLM)
[3] = target: recombinant mouse GALK1 (Mus musculus, UniProt Q9R0N0); assay: mGALK1 biochemical activity assay (Kinase-Glo Plus, ATP depletion)
recombinant mouse GALK1, sequence (Q9R0N0 whole entry): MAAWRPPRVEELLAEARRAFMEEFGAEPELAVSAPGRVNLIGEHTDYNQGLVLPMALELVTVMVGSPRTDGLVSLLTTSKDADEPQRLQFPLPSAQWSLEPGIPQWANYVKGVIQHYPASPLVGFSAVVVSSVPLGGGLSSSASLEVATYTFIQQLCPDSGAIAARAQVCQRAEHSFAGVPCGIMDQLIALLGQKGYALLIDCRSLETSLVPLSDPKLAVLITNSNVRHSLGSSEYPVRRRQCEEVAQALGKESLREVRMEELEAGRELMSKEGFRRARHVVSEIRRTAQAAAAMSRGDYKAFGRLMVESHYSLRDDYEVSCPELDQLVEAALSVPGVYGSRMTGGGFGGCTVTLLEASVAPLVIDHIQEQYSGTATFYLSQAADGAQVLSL
Procedure, shortened: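 Recombinant GALK1 (5 nM) with 100 μM galactose; GALK1 turnover read as ATP depletion by Kinase-Glo Plus luminescence. Reaction ran 1 h at room temperature before detection reagent was added.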

[4] = PAMPA permeability
[5] = aqueous kinetic solubility
[6] = Tables 2-15, 35 μM ATP, 100 μM galactose, 1 h, bracketed figure after some values (e.g. −1.2) is undefined and not reported, read-out: hGALK IC50
[7] = recombinant human GALK1, Kinase-Glo Plus ATP depletion, read-out: hGALK
[8] = Tables 2-15, 35 μM ATP, 100 μM galactose, 1 h, bracketed figure after some values is undefined and not reported, read-out: mGALK IC50
[9] = recombinant mouse GALK1, Kinase-Glo Plus ATP depletion, read-out: mGALK
[10] = recombinant human GALK1, Kinase-Glo Plus ATP depletion
[11] = recombinant mouse GALK1, Kinase-Glo Plus ATP depletion
[12] = recombinant human GALK1, Kinase-Glo Plus ATP depletion, bracketed figure in the cell, e.g. (−1.2), is not defined in the text shown, read-out: hGALK
[13] = microsomal stability half-life, minutes
[14] = recombinant mouse GALK1, Kinase-Glo Plus ATP depletion, bracketed figure in the cell, e.g. (−1.2), is not defined in the text shown, read-out: mGALK

recombinant human GALK1, sequence (P51570 whole entry): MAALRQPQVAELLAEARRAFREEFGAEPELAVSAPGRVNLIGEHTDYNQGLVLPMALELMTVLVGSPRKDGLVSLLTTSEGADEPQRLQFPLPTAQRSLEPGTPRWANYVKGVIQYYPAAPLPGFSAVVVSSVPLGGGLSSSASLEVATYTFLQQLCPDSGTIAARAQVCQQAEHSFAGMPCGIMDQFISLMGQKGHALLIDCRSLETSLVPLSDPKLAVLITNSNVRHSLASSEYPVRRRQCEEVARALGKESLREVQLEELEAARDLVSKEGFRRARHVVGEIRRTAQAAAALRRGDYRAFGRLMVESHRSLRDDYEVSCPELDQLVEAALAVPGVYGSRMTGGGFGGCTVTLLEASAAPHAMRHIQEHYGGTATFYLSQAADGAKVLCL

Row | SMILES | IC50 [1, 6] [µM] | IC50 [1, 7] [µM] | Metab. Stabil. (m) ([2]; microsomal half-life) | IC50 [3, 8] [µM] | IC50 [3, 9] [µM] | Perm. (1 × 10^−6 cm/sec) [4] | Sol. [5] [µg/mL] | Metab. Stabil. (m) ([2]; microsomal stability half-life) | Sol. ([5]; aqueous kinetic solubility) [µg/mL] | Perm. (1 × 10^−6 cm/sec) ([4]; PAMPA) | also measured
1 | CC1=C(C(=O)NCc2c(C)nn(C)c2C)C(c2ccc(C)cc2Cl)N=C(Nc2nc3ccc(F)cc3o2)N1 (stereo not shown) [Compound 111, 4-(2-chloro-4-methylphenyl)-2-((6-fluorobenzo[d]oxazol-2-yl)amino)-6-methyl-N-((1,3,5-trimethyl-1H-pyrazol-4-yl)methyl)-1,4-dihydropyrimidine-5-carboxamide] | 3.85 | 3.85 | 2.66 | 4.85 | 4.85 | 16.91 1 × 10^−6 cm/sec | <1 | – | – | – | –
2 | CC1=C(C(=O)Nc2ccc(N3CCNCC3)cc2)C(c2ccccc2Cl)N=C(Nc2nc3ccccc3o2)N1 (stereo not shown) [Compound 190, 2-(benzo[d]oxazol-2-ylamino)-4-(2-chlorophenyl)-6-methyl-N-(4-(piperazin-1-yl)phenyl)-1,4-dihydropyrimidine-5-carboxamide] | 68.5 | 68.5 | – | 48.5 | 48.5 | – | – | 8.634 | 2.416 | – | Papp ([4]; PAMPA, Perm. (1 × 10^−6 cm/sec)): 894 ×10⁻⁶ cm/s
3 | CC1=C(C(=O)N(C)c2ccccc2)C(c2ccccc2Cl)N=C(Nc2nc3ccccc3o2)N1 (stereo not shown) [Compound 151, 2-(benzo[d]oxazol-2-ylamino)-4-(2-chlorophenyl)-N,6-dimethyl-N-phenyl-1,4-dihydropyrimidine-5-carboxamide] | – | – | – | – | – | – | – | 1.176 | <1 | 203.1 1 × 10^−6 cm/sec | hGALK (μM) [1, 10]: in- active; mGALK (μM) [3, 11]: in- active
4 | CC1=C(C(=O)Nc2nc(CO)cs2)C(c2ccccc2Cl)N=C(Nc2nc3ccccc3o2)N1 (stereo not shown) [Compound 198, 2-(benzo[d]oxazol-2-ylamino)-4-(2-chlorophenyl)-N-(4-(hydroxymethyl)thiazol-2-yl)-6-methyl-1,4-dihydropyrimidine-5-carboxamide] | 17.2 | 17.2 | – | 19.3 | 19.3 | – | – | >30 | <1 | 59.9 1 × 10^−6 cm/sec | –
5 | CC1=C(C(=O)Nc2ccccn2)C(c2ccccc2Cl)N=C(Nc2nc3cccc(N)c3o2)N1 (stereo not shown) [Compound 81, 2-((7-aminobenzo[d]oxazol-2-yl)amino)-4-(2-chlorophenyl)-6-methyl-N-(pyridin-2-yl)-1,4-dihydropyrimidine-5-carboxamide] | – | 3.43 | >30 | – | 19.3 | 271.13 1 × 10^−6 cm/sec | <1 | – | – | – | –
6 | CC1=C(C(=O)Nc2nncs2)C(c2ccccc2Br)N=C(Nc2nc3ccccc3o2)N1 (stereo not shown) [Compound 251, 2-(benzo[d]oxazol-2-ylamino)-4-(2-bromophenyl)-6-methyl-N-(1,3,4-thiadiazol-2-yl)-1,4-dihydropyrimidine-5-carboxamide] | – | – | – | – | – | – | – | – | <1 | 446.9 1 × 10^−6 cm/sec | IC50 [1, 12]: 4.32 µM; Metab. Stabil. (m) [2, 13]: >30 m; IC50 [3, 14]: 9.68 µM
7 | CNC(=O)C1CC(=O)C2=C(C1)NC(Nc1nc3ccccc3o1)=NC2c1ccccc1Cl (stereo not shown) [Compound 278, 2-(benzo[d]oxazol-2-ylamino)-4-(2-chlorophenyl)-N-methyl-5-oxo-1,4,5,6,7,8-hexahydroquinazoline-7-carboxamide] | – | – | – | – | – | – | – | – | <1 | 430.36 1 × 10^−6 cm/sec | IC50 [1, 12]: 6.11 µM; Metab. Stabil. (m) [2, 13]: >30 m; IC50 [3, 14]: 6.85 µM
8 | CC1=C(C(=O)Nc2cc(C(=O)O)ccn2)[C@H](c2ccccc2Cl)N=C(Nc2nc3ccc(F)cc3o2)N1 [Compound 19, (R)-2-(4-(2-chlorophenyl)-2-((6-fluorobenzo[d]oxazol-2-yl)amino)-6-methyl-1,4-dihydropyrimidine-5-carboxamido)isonicotinic acid] | 0.24 | 0.24 | >30 | 1.72 | 1.72 | <1 1 × 10^−6 cm/sec | 55.6 | – | – | – | –
9 | CC1=C(C(=O)Nc2cccc(Br)c2)C(c2ccccc2Cl)N=C(Nc2nc3ccccc3o2)N1 (stereo not shown) [Compound 147, 2-(benzo[d]oxazol-2-ylamino)-N-(3-bromophenyl)-4-(2-chlorophenyl)-6-methyl-1,4-dihydropyrimidine-5-carboxamide] | – | – | – | – | – | – | – | >30 | <1 | <1.8 1 × 10^−6 cm/sec | hGALK IC50 ([1]; Tables 2-15, 35 μM ATP, 100 μM galactose, 1 h, bracketed figure after some values (e.g. −1.2) is undefined and not reported): inactive; hGALK (μM) [1, 10]: in- active; mGALK IC50 ([3]; Tables 2-15, 35 μM ATP, 100 μM galactose, 1 h, bracketed figure after some values is undefined and not reported): inactive; mGALK (μM) [3, 11]: in- active
10 | CC1=C(C(=O)Nc2cc(C(=O)O)ccn2)C(c2ccc(N3CCOCC3)cc2Cl)N=C(Nc2nc3ccc(F)cc3o2)N1 (stereo not shown) [Compound 59, 2-(4-(2-chloro-4-morpholinphenyl)-2-((6-fluorobenzo[d]oxazol-2-yl)amino)-6-methyl-1,4-dihydropyrimidine-5-carboxamido)isonicotinic acid] | – | 0.43 | >30 | 3.85 | 3.85 | 26.5 1 × 10^−6 cm/sec | >89 | – | – | – | –
11 | O=C(Nc1nncs1)C1=C(C(F)(F)F)NC(Nc2nc3ccccc3o2)=NC1c1ccccc1Cl (stereo not shown) [Compound 246, 2-(benzo[d]oxazol-2-ylamino)-4-(2-chlorophenyl)-N-(1,3,4-thiadiazol-2-yl)-6-(trifluoromethyl)-1,4-dihydropyrimidine-5-carboxamide] | – | – | – | – | – | – | – | – | 21.9 | 715.1 1 × 10^−6 cm/sec | IC50 [1, 12]: 13.7 µM; Metab. Stabil. (m) [2, 13]: >30 m; IC50 [3, 14]: 17.2 µM
12 | CC1=C(C(=O)Nc2ccc(C(=O)O)nc2)C(c2ccccc2Cl)N=C(Nc2nc3ccccc3o2)N1 (stereo not shown) [Compound 164, 5-(2-(benzo[d]oxazol-2-ylamino)-4-(2-chlorophenyl)-6-methyl-1,4-dihydropyrimidine-5-carboxamido)picolinic acid] | – | 4.85 | – | – | 9.68 | – | – | >30 | 24.6 | <1 1 × 10^−6 cm/sec | –
13 | CC1=C(C(=O)Nc2cc(C(N)=O)ccn2)C(c2ccccc2Cl)N=C(Nc2nc3ccc(F)cc3o2)N1 (stereo not shown) [Compound 38, N-(4-carbamoylpyridin-2-yl)-4-(2-chlorophenyl)-2-((6-fluorobenzo[d]oxazol-2-yl)amino)-6-methyl-1,4-dihydropyrimidine-5-carboxamide] | 4.85 | 4.85 | >30 | 19.3 | 19.3 | 15.5 1 × 10^−6 cm/sec | 2.4 | – | – | – | –
14 | CC1=C(C(=O)Nc2cc(C(=O)O)ccn2)C(c2ccc(-n3cccn3)cc2Cl)N=C(Nc2nc3ccc(F)cc3o2)N1 (stereo not shown) [Compound 60, 2-(4-(2-chloro-4-(1H-pyrazol-1-yl)phenyl)-2-((6-fluorobenzo[d]oxazol-2-yl)amino)-6-methyl-1,4-dihydropyrimidine-5-carboxamido)isonicotinic acid] | – | 0.77 | >30 | – | 3.43 | <1 1 × 10^−6 cm/sec | >87 | – | – | – | –
15 | CC1=C(C(=O)Nc2cccc(-c3cn[nH]c3)c2)C(c2ccccc2Cl)N=C(Nc2nc3ccccc3o2)N1 (stereo not shown) [Compound 178, N-(3-(1H-pyrazol-4-yl)phenyl)-2-(benzo[d]oxazol-2-ylamino)-4-(2-chlorophenyl)-6-methyl-1,4-dihydropyrimidine-5-carboxamide] | 17.2 | 17.2 | – | 38.5 | 38.5 | – | – | >30 | <1 | <25.4 1 × 10^−6 cm/sec | –
16 | CC(C)CC1=C(C(=O)Nc2nncs2)C(c2ccccc2Cl)N=C(Nc2nc3ccccc3o2)N1 (stereo not shown) [Compound 248, 2-(benzo[d]oxazol-2-ylamino)-4-(2-chlorophenyl)-6-isobutyl-N-(1,3,4-thiadiazol-2-yl)-1,4-dihydropyrimidine-5-carboxamide] | – | – | – | – | – | – | – | – | <1 | 42.7 1 × 10^−6 cm/sec | IC50 [1, 12]: 5.44 µM; Metab. Stabil. (m) [2, 13]: >30 m; IC50 [3, 14]: 17.2 µM
17 | O=C1CC(C(=O)Nc2nncs2)CC2=C1C(c1ccccc1Cl)N=C(Nc1nc3ccccc3o1)N2 (stereo not shown) [Compound 281, 2-(benzo[d]oxazol-2-ylamino)-4-(2-chlorophenyl)-5-oxo-N-(1,3,4-thiadiazol-2-yl)-1,4,5,6,7,8-hexahydroquinazoline-7-carboxamide] | – | – | – | – | – | – | – | – | 1.23 | <5 1 × 10^−6 cm/sec | IC50 [1, 12]: 6.85 µM; Metab. Stabil. (m) [2, 13]: >30 m; IC50 [3, 14]: 12.2 µM
